Where two headings read alike, the source gives them in different places.
Assay: First-in-human phase 1 study: pharmacokinetics parameters of GDC-0853 (plasma) on day 1 and day 15
Type: in vivo
Conditions: for AUC(0-inf): read-out: Day 1 AUC0-inf Mean (%CV)
Source text: Table 3 Summary of pharmacokinetics parameters for GDC-0853 on day 1 and day 15 (cohorts 1, 2, and 3, with 100, 200, and 400-mg GDC-0853, respectively) | column: Day 1 T1/2 (hr) Mean (%CV); Day 1 Tmax^a (hr) Median (range); Day 1 Cmax (μM) Mean (%CV); Day 1 AUC0-inf (hr•μM) Mean (%CV); Day 1 AUC0-24 (hr*μM) Mean (%CV); Day 15 Tmax^a(hr) Median (range); Day 15 Cmax (μM) Mean (%CV); Day 15 AUC0- 24 (hr•μM) Mean (%CV); Day 15 Accumulation Ratio Mean (%CV)

SMILES: C[C@H]1CN(C2COC2)CCN1c1ccc(Nc2cc(-c3ccnc(N4CCn5c(cc6c5CC(C)(C)C6)C4=O)c3CO)cn(C)c2=O)nc1 [GDC-0853]
- Day 15 Accumulation Ratio Mean (%CV) (100 mg (n = 6), cohort 1, day 15): 1.78 (58.4)
- Day 15 Accumulation Ratio Mean (%CV) (200 mg (n = 9), cohort 2, day 15): 1.44 (77.9)
- Day 15 Accumulation Ratio Mean (%CV) (400 mg (n = 9), cohort 3, day 15): 1.91 (102)
- Cmax (human, plasma, 100 mg, 100 mg (n = 6), cohort 1, day 1, plasma, read-out: Day 1 Cmax Mean (%CV)): 119 nM
- AUC(0-t) (human, plasma, 100 mg, 100 mg (n = 6), cohort 1, day 1, read-out: Day 1 AUC0-24 Mean (%CV)): 0.67 µM·h
- AUC(0-t) (human, plasma, 100 mg, 100 mg (n = 6), cohort 1, day 15, read-out: Day 15 AUC0-24 Mean (%CV)): 1.2 µM·h
- Cmax (human, plasma, 200 mg, 200 mg (n = 9), cohort 2, day 1, plasma, read-out: Day 1 Cmax Mean (%CV)): 571 nM
- AUC(0-t) (human, plasma, 200 mg, 200 mg (n = 9), cohort 2, day 1, read-out: Day 1 AUC0-24 Mean (%CV)): 2.54 µM·h
- Cmax (human, plasma, 200 mg, 200 mg (n = 9), cohort 2, day 15, plasma, read-out: Day 15 Cmax Mean (%CV)): 614 nM
- AUC(0-t) (human, plasma, 200 mg, 200 mg (n = 9), cohort 2, day 15, read-out: Day 15 AUC0-24 Mean (%CV)): 2.83 µM·h
- Cmax (human, plasma, 400 mg, 400 mg (n = 9), cohort 3, day 1, plasma, read-out: Day 1 Cmax Mean (%CV)): 1440 nM
- AUC(0-t) (human, plasma, 400 mg, 400 mg (n = 9), cohort 3, day 1, read-out: Day 1 AUC0-24 Mean (%CV)): 6.95 µM·h
- Cmax (human, plasma, 400 mg, 400 mg (n = 9), cohort 3, day 15, plasma, read-out: Day 15 Cmax Mean (%CV)): 1390 nM
- AUC(0-t) (human, plasma, 400 mg, 400 mg (n = 9), cohort 3, day 15, read-out: Day 15 AUC0-24 Mean (%CV)): 7.74 µM·h
- AUC(0-inf) (human, plasma, 100 mg (n = 6), cohort 1, day 1): 0.861 µM·h
- AUC(0-inf) (human, plasma, 200 mg (n = 9), cohort 2, day 1): 3.42 µM·h
- Tmax (human, plasma, 200 mg (n = 9), cohort 2, day 15, read-out: Day 15 Tmax Median (range)): 2.1 h
- AUC(0-inf) (human, plasma, 400 mg (n = 9), cohort 3, day 1): 7.57 µM·h
